Where no end group is shown, it is not given here. [ ]: non-standard residue; d: D form. pT = C[C@@H](OP(=O)(O)O)[C@H](N)C(=O)O
B1: T1010A: NCAPG2 mutant which substituted threonine with alanine at the residue number 1010 of SEQ ID NO: 7 (protein, listed as Homo sapiens)
chain: MEKRETFVQAVSKELVGEFLQFVQLDKEASDPFSLNELLDELSRKQKEELWQRLKNLLTDVLLESPVDGWQVVEAQGEDNMETEHGSKMRKSIEIIYAITSVILASVSVINESENYEALLECVIILNGILYALPESERKLQSSIQDLCVTWWEKGLPAKEDTGKTAFVMLLRRSLETKTGADVCRLWRIHQALYCFDYDLEESGEIKDMLLECFININYIKKEEGRRFLSCLFNWNINFIKMIHGTIKNQLQGLQKSLMVYIAEIYFRAWKKASGKILEAIENDCIQDFMFHGIHLPRRSPVHSKVREVLSYFHHQKKVRQGVEEMLYRLYKPILWRGLKARNSEVRSNAALLFVEAFPIRDPNLHAIEMDSEIQKQFEELYSLLEDPYPMVRSTGILGVCKITSKYWEMMPPTILIDLLKKVTGELAFDTSSADVRCSVFKCLPMILDNKLSHPLLEQLLPALRYSLHDNSEKVRVAFVDMLLKIKAVRAAKFWKICPMEHILVRLETDSRPVSRRLVSLIFNSFLPVNQPEEVWCERCVTLVQMNHAAARRFYQYAHEHTACTNIAKLIHVIRHCLNACIQRAVREPPEDEEEEDGREKENVTVLDKTLSVNDVACMAGLLEIIVILWKSIDRSMENNKEAKLYTINKFASVLPEYLKVFKDDRCKIPLFMLMSFMPASAVPPFSCGVISTLRSREEGAVDKSYCTLLDCLCSWGQVGHILELVDNWLPTEHAQAKSNTASKGRVQIHDTRPVKPELALVYIEYLLTHPKNRECLLSAPRKKLNHLLKALETSKADLESLLQTPGGKPRGFSEAAAPRAFGLHCRLSIHLQHKFCSEGKVYLSMLEDTGFWLESKILSFIQDQEEDYLKLHRVIYQQIIQTYLTVCKDVVMVGLGDHQFQMQLLQRSLGIMQTVKGFFYVSLLLDILKEITGSSLIQKTDSDEEVAMLLDTVQKVFQKMLECIARSFRKQPEEGLRLLYSVQRPLHEFITAVQSRHTDTPVHRGVLSALIAGPVVEISHQLRKVSDVEELTPPEHLSDLPPFSRCLIGIIIKSSNVVRSFLDELKACVASNDIEGIVCLTAAVHIILVINAGKHKSSKVREVAATVHRKLKTFMEITLEEDSIERFLYESSSRTLGELLNS

What was measured:
[1] = tested on: HuR-7 human hepatoma cell; assay: Cell survival and nucleus morphology of hepatoma cells treated with FITC-tagged NCAPG2 peptides (Opera Phenix); format: cell-based; conditions: HuR-7, FITC-tagged peptide
Description: FIG. 12 illustrates NCAPG2 p The1010 (VLSpTL) and NCAPG2 The1010 (VLSTL) peptide decreased cell survival and induced mitotic defect in HuR-7 human hepatoma cell. Cell survival and nucleus morphology were detected from Opera Phenix system (PerkinElmer).

human PLK1-PBD (371-594) = target: T1, human PLK1-PBD (371-594) (Homo sapiens, UniProt P53350); assay: Fluorescence polarisation binding assay for the PBD of PLK1; conditions: FITC-labelled peptide 10 nM, protein 0 to 4 μM
T1 construct: The human PLK1-PBD (371-594) was amplified by PCR; GST (N, cleaved yes); made in house; host or cells: E. coli Rosetta2(DE3)pLysS
Experimental: The human PLK1-PBD (371-594) was amplified by PCR and cloned into the pGEX6p-1 vector using the EcoRI and XhoI restriction enzyme sites. The protein was overexpressed in E. coli Rosetta2(DE3)pLysS cells (Novagen). The cells were grown at 37° C. in 3 L of Terrific Broth medium to an OD600 of 0.6, and recombinant protein expression was induced with 0.1 mM isopropyl β-D-thiogalactopyranoside (IPTG) at 20° C. The cells were further grown at 20° C. for 20 hr after IPTG induction. The purification methods were similar to methods that have been previously reported (Cheng, K. Y., et al. The crystal structure of the human polo-like kinase-1 polo box domain and its phospho-peptide complex. EMBO J 22, 5757-68 (2003)). Briefly, the cell pellet was resuspended in ice-cold HBS buffer (10 mM HEPES pH 7.5, 200 mM NaCl, 3.4 mM EDTA, 0.01% (v/v) 1-thioglycerol) and homogenized by sonication. After sonication, the cell debris was centrifuged and supernatant was applied to GST Sepharose resin (GE Healthcare). After extensive washing with HBS buffer, protein was eluted with HBS buffer supplemented with 20 mM reduced glutathione. PreScission protease (GE Healthcare) was added to eluted protein in order to remove the fused GST and the cleavage product was diluted and re-passed through GST Sepharose column. The flow through was collected and applied to Superdex 75 prep grade column (GE Healthcare) equilibrated with HBS buffer. The purified protein was concentrated to 6 mg/ml and used for fluorescence polarization binding assay or crystal screening.
For the fluorescence polarisation binding assay, FITC-labelled 1010pT (GVLSpTLI) or 1010T (GVLSTLI) (SEQ ID NO: 8) peptide was mixed with purified PBD and incubated in a buffer containing 10 mM HEPES (pH7.5), 50 mM NaCl, 1 mM EDTA, 1 mM DTT, and 0.0025% (v/v) Tween 20. The final protein concentrations ranged from 0 to 4 μM, and the final peptide concentration was 10 nM. Fluorescence polarisation was analysed 30 min after mixing the peptide and proteins in a 96-well plate using a VERSAmax microplate reader (Molecular Devices). Binding curves were fitted using GraphPad Prism software (GraphPad Software).
The human PLK1-PBD (371-594), PLK2-PBD (451-685) and PLK3-PBD (412-646) genes were cloned into pGEX6p-1 vector using EcoRI/XhoI restriction sites. […] The purified PLK-PBD proteins were concentrated and used for the fluorescence polarization binding assay.
For the fluorescence polarization binding assay, each fluorescein isothiocyanate (FITC)-labeled 1010pT (GVLSpTLI), 1010T (GVLSTLI), 1010E (GVLSELI), or 1010D (GVLSDLI) peptide was mixed with purified PLK1, PLK2 or PLK3 and incubated in a buffer containing 10 mM HEPES (pH 7.5), 50 mM NaCl, 1 mM EDTA, 1 mM DTT and 0.0025% (v/v) Tween 20. […]

PLK1 = target: T2, PLK1 (Homo sapiens, UniProt P53350); assay: Pull down assay / immunoprecipitation of Flag-tagged NCAPG2 mutants with GST-tagged PLK1; format: binding
T2 construct: expressed in transfected cells
Description: The NCAPG2 expression vectors were constructed using pcDNA3.1, pCMV-3FLAG-1, and pLL3.7 vectors with KpnI/XhoI, EcoRV/XhoI, and SmaI/XhoI restriction enzyme sites, respectively. To produce siRNA-resistant NCAPG2 mutants (Lenti-NCAPG2^R), the mutants (forward primer: 5′ GAAGACTACCTGAAGCTTCACAGA GTGATT TATCAGCAAATTATCCAGACCTACCTG-3′ (SEQ ID NO: 3), reverse primer: 5′-CAGGTAGGTCTGGATAATTTGCTGATAAATCACTCTGTGAAGCTTCAGGTAGTCTTCTTC-3′ (SEQ ID NO: 4)) were generated using a QuikChange Site-Directed Mutagenesis Kit (Stratagene). […]
For the detection of proteins using the immunoblottings, subjects were protein complexes from immunoprecipitation or whole cell lysates harvested from indicated conditions. […] Protein concentration was determined using BCA™ protein assay kit (Pierce, Rockford, USA). […] Protein expressions detected chemiluminescent signals activated by SuperSignal West Pico Chemiluminescent Substrate (Pierce Rockford, Ill., USA) reacted with horse radish peroxidase tagged secondary antibodies (Jackson ImmunoResearch Laboratories, Inc., West Grove, USA).

T1 sequence (P53350 371-594): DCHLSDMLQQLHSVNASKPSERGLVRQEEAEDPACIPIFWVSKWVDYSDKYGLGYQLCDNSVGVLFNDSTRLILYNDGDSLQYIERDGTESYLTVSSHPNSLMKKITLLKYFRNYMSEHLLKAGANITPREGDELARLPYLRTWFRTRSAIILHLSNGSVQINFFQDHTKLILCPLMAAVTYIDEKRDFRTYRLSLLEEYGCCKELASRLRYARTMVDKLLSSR
T2 sequence (P53350 whole entry): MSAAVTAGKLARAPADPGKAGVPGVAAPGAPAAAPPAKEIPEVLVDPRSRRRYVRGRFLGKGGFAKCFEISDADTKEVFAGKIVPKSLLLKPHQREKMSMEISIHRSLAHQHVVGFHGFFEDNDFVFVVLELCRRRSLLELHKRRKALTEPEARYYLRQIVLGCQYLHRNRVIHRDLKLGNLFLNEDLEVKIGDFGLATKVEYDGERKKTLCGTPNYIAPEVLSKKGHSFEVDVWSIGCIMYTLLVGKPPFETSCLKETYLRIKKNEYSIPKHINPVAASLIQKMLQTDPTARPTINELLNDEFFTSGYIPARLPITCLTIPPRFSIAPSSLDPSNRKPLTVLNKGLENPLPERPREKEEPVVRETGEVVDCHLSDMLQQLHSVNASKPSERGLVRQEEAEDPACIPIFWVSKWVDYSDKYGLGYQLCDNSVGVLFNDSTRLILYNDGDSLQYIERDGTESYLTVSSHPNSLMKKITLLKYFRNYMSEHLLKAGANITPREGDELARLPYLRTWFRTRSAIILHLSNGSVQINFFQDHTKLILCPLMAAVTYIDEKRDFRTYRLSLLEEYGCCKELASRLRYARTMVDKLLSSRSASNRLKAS

Row | Molecule | effect on mitosis [1] | survival rate of human liver cancer cell [1] | binding to PLK1-PBD (in words) (human PLK1-PBD (371-594)) | binding of NCAPG2 mutant to PLK1 (PLK1)
1 | VLSTL (listed as Homo sapiens) [NG2 The1010] | induced abnormal mitosis | lowered survival rate | – | –
2 | GVLSDLI [1010D, 7-mer peptide with aspartate as phosphor-Thr mimetic] | – | – | did not bind | –
3 | GVLSELI [1010E, 7-mer peptide with glutamate as phosphor-Thr mimetic] | – | – | did not bind | –
4 | VLSpTL (VLS[pT]L; listed as Homo sapiens) [NG2 p The1010, phosphorylated 5-mer NCAPG2 peptide comprising residue 1010] | induced abnormal mitosis | lowered survival rate | – | –
5 | B1 | – | – | – | inhibited

From patent publication US9562084B2, “Peptides derived from NCAPG2 and their use” (NATIONAL CANCER CENTER, priority 2014, dated 2017)
